Drawing on PubChem BioAssay (NCI), this text covers TGI for 27 molecules.

Common to all, as to assay: NCI anticancer screen, dose series, 48 h
Assay [1] relates to CAKI-1 renal.
The subject of assay [2] is HOP-92 NSCLC.
The test system of assay [3] is MOLT-4 leukemia.
Assay [4] deals with NCI/ADR-RES ovarian.
In assay [5] the test system is RXF 393 renal.
Assay [6] relates to SF-268 CNS.
The subject of assay [7] is UACC-257 melanoma.
For assay [8], the system named is UACC-62 melanoma.
The subject of assay [9] is DLD-1 colon.
Assay [10] relates to DMS 114 small cell lung.
In assay [11] the test system is HOP-18 NSCLC.
The test system of assay [12] is KM20L2 colon.
Assay [13] relates to LXFL 529 NSCLC.
Assay [14] deals with M19-MEL melanoma.
In assay [15] the test system is SNB-78 CNS.
Assay [16] deals with DMS 273 small cell lung.

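Dose response: 5 concentrations. Exposure: 48 h. Format: 96-well plates. Endpoint: linear interpolation; highest concentration if not reached. TGI denotes the concentration required for complete inhibition of growth.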 Where a SMILES comes first, the peptide text is derived from it. [ ]: non-standard residue; d: D form. The star is where a group is joined. NMeV = CN[C@H](C(=O)O)C(C)C; X29 = COc1ccc(CN*)c(OC)c1; Octanoyl = CCCCCCCC(=O)*; dNMeA = CN[C@H](C)C(=O)O Some results are limits rather than exact numbers.

With `COc1cc2c3c(c1)CCCN3CCC2`, the TGI in [1], in [2], in assay [3], in [4], in assay [5] and in assay [6] was over 10 µM throughout. The TGI in assay [7] and in assay [8] was over 10 µM in each case.
As for `Cc1ccccc1-n1c(=O)c2ncn(C3CCCO3)c2n(-c2ccccc2C)c1=S` (stereo unspecified), the TGI in assay [1], in assay [2], in assay [3], in assay [4], in assay [5] and in assay [6] was over 100 µM each time. In addition, the TGI in assay [7] and in assay [8] was over 100 µM each time.
Take `Cc1ccc(NC(Nc2ccc(C)cc2C)=C(/C=C(\Cl)[N+](=O)[O-])[N+](=O)[O-])c(C)c1`: the TGI in assay [1] came out at 4.23 µM; in [2], 3.99 µM; in assay [3] it was 4.82 µM; in assay [4], 48.8 µM; in [5], 3.75 µM; in assay [6], 10.3 µM. For the same molecule, the TGI in assay [7] was found to be 13.1 µM; in assay [8], 10 µM.
With `CN1c2ccccc2C(=O)NC12CCN(CCCC(=O)c1ccc(F)cc1)CC2`, the TGI in [1] was over 100 µM; in [2] it was over 100 µM; in [3], 71.2 µM; in [4] it was over 100 µM; in assay [5], over 100 µM; in assay [6], 88.9 µM. The TGI is 87.6 µM in [7] and over 100 µM in [8].
Consider `CC1(/C=C/CCSc2ccccc2)CC(=O)C2CC1C2(C)C` (stereo unspecified), for which the TGI is over 82 µM in assay [1]; over 75.4 µM in assay [2]; over 40.5 µM in assay [3]; over 61.8 µM in assay [4]; over 100 µM in assay [5]; over 100 µM in assay [6]. Moreover, the TGI is over 73.6 µM in [7] and over 60 µM in assay [8].
Turning to `COc1cc(/C=C/c2nc(NC(=S)Nc3ccccc3)nnc2C)cc(OC)c1OC`, the TGI was over 100 µM in [1]; over 100 µM in [2]; over 100 µM in assay [3]; over 100 µM in assay [4]; 66.8 µM in assay [5]; over 100 µM in assay [6]. Moreover, the TGI in assay [7] is over 100 µM; in assay [8] it was 51.1 µM.
Regarding `NC(N)=NCC[C@H](NC(=O)OCCCCCn1ccc(=O)[nH]c1=O)C(=O)O`, the TGI in assay [1], in assay [2], in assay [3], in assay [4], in [5] and in assay [6] was over 100 µM each time. Also, the TGI in [7] and in assay [8] was over 100 µM each time.
`CC1(C)C=Cc2c(cc(O)c3c(=O)c4cc(Cl)ccc4[nH]c23)O1`: the TGI in assay [1] is over 10 µM; in assay [2], 7.79 µM; in assay [3], 8.22 µM; in assay [4], 5.97 µM; in [5], over 10 µM; in assay [6] it was over 10 µM. Besides, the TGI in assay [7] and in assay [8] was over 10 µM throughout.
Take `CCCCCCCC(=O)N[C@H](C(=O)N[C@H](C(=O)N(C)[C@H](C(=O)N1CCC[C@H]1C(=O)N(C)[C@H](C)C(=O)NCc1ccc(OC)cc1OC)C(C)C)C(C)C)C(C)C` (Octanoyl-VV[NMeV]P[dNMeA]-X29): the TGI in assay [1] is over 86.3 µM; in [2] it was 36.7 µM; in assay [3], over 90.4 µM; in assay [4], over 100 µM; in assay [5] it was 46.1 µM; in [6], over 100 µM. Also, the TGI came out at 60.7 µM in [7] and 23.7 µM in assay [8].
For `CCCP1(=O)C=C(C)C(=C(Cl)Cl)C(C)=C1` (stereo unspecified), the TGI in assay [9] was over 100 µM; in assay [10] it was over 100 µM; in assay [11], over 100 µM; in [2], 89.6 µM; in assay [12] it was 47.1 µM; in assay [13] it was over 100 µM. The TGI in [14] was over 100 µM; in assay [3], 98.6 µM; in assay [5], over 100 µM; in assay [6] it was 88.3 µM; in assay [15], over 100 µM; in [7], over 100 µM. Further, the TGI in assay [8] was over 100 µM.
Consider `CN(C)c1ccc(NN=C2SC(=Nc3ccccc3)C(=Nc3ccccc3)S2)cc1`, for which the TGI in assay [1], in assay [2], in [3], in [4], in assay [5] and in assay [6] was over 100 µM throughout. Besides, the TGI in assay [7] and in [8] was over 100 µM in each case.
For the molecule `CCOC(=O)C1=NOC2(C=C(Br)C(=O)C(Br)=C2)C1`, the TGI in [1] is 2.88 µM; in [2], 3.56 µM; in assay [3] it was 0.304 µM; in assay [4], over 26.6 µM; in [5], 3.54 µM; in [6], 29.1 µM. Further, the TGI came to 2.71 µM in [7] and 8.54 µM in assay [8].
With `Oc1ccc(-c2cc(-c3cc(-c4ccc(O)cc4)no3)on2)cc1`, the TGI in [1] was over 100 µM; in assay [2] it was over 100 µM; in assay [3] it was 9.52 µM; in assay [4], over 100 µM; in [5], over 100 µM; in assay [6], over 100 µM. Moreover, the TGI in [7] is over 31.1 µM; in [8], over 100 µM.
With `CC(=O)Nc1ccc(C(O)/C(=N/N)c2nc3ccc(Cl)cc3[nH]c2=O)cc1` (stereo unspecified), the TGI in [1], in assay [2], in assay [3], in assay [4], in [5] and in [6] was over 100 µM each time. Further, the TGI in assay [7] and in assay [8] was over 100 µM throughout.
In the case of `CCOC(=O)c1c(C)nc2c1c(CN(C)C)c(O)c1[nH]c(C)c(C)nc12`, the TGI is over 100 µM in assay [1]; 96.6 µM in assay [2]; 85.6 µM in [3]; 76.6 µM in assay [4]; 65.7 µM in assay [5]; 93.1 µM in assay [6]. Further, the TGI came to 61.3 µM in assay [7] and 30.3 µM in assay [8].
Take `CC(C)(C)c1cc2c(OC/C=C/c3ccccc3)c(c1)Cc1cc(C(C#N)(OC/C=C/c3ccccc3)OC/C=C/c3ccccc3)cc(c1OC/C=C\c1ccccc1)Cc1cc(C(C)(C)C)cc(c1OC/C=C/c1ccccc1)Cc1cc(C(C#N)(OC/C=C\c3ccccc3)OC/C=C/c3ccccc3)cc(c1OC/C=C\c1ccccc1)C2` (stereo unspecified): the TGI in [1], in [2], in assay [3], in [4], in [5] and in assay [6] was over 100 µM throughout. Besides, the TGI in assay [7] and in assay [8] was over 100 µM each time.
Take `c1ccc2c(c1)C1CCCCCC21N1CCOCC1` (stereo unspecified): the TGI in assay [1], in assay [9], in assay [10], in assay [16], in assay [12] and in assay [13] was over 100 µM throughout. Also, the TGI in assay [14], in [3], in assay [5], in assay [6], in [15] and in assay [7] was over 100 µM each time. Also, the TGI in assay [8] was over 100 µM.
`O=C(CSc1nnc(Cc2ccccc2)o1)Nc1ccccc1`: the TGI in assay [9], in assay [10], in assay [16], in assay [11], in assay [12] and in assay [13] was over 100 µM in each case. The TGI in assay [14], in assay [3], in assay [5], in [6], in assay [15] and in [7] was over 100 µM throughout. The molecule further yielded a TGI in [8] of over 100 µM.
For `O=[N+]([O-])c1nccn1CCCNc1ccnc2cc(Cl)ccc12`, the TGI in assay [1] is over 7.83 µM; in assay [2] it was over 21 µM; in [3], over 100 µM; in assay [4] it was over 100 µM; in assay [5] it was over 23 µM; in assay [6] it was over 65.6 µM. For the same molecule, the TGI in assay [7] was over 9.02 µM; in [8] it was over 8.46 µM.
As for `O=C(CCCN1CCC2(CC1)CC(c1ccccc1)OC2=O)c1ccc(F)cc1` (stereo unspecified), the TGI in assay [1] is 82.3 µM; in [2], 76.9 µM; in assay [3] it was 62.1 µM; in assay [4], over 100 µM; in assay [5], over 100 µM; in assay [6], over 100 µM. Also, the values for the TGI in assay [7] and in assay [8] were 52.1 µM and 61.9 µM, respectively.
In the case of `CC1=NN(C(=O)c2ccncc2)C(=O)C1`, the TGI in [1], in [2], in assay [3], in assay [4], in assay [5] and in assay [6] was over 100 µM each time. Also, the TGI in assay [7] and in assay [8] was over 100 µM throughout.
As for `O=C1OCC2OC(=O)c3cc(O)c(O)c(O)c3-c3c(O)c(O)c(O)c4c3C(=O)OC(C2OC(=O)c2cc(O)c(O)c(O)c2-c2c1cc(O)c(O)c2O)C1OC(=O)c2c-4c(O)c(O)c(O)c2[C@@H]1C(O)C(O)C(O)C(O)CO` (stereo partly specified), the TGI in [1] was 26.7 µM; in [2], 45.8 µM; in [3], 49.8 µM; in assay [4] it was 66.1 µM; in assay [5] it was 34.3 µM; in assay [6], 47.4 µM. Further, the results for the TGI in assay [7] and in assay [8] were 46.7 µM and 36.7 µM, respectively.
Take `CC(=O)C1C(=O)C(=O)N(c2cccc([N+](=O)[O-])c2)C1=O` (stereo unspecified): the TGI in assay [1], in assay [2], in assay [3], in [4], in [5] and in [6] was over 100 µM in each case. Also, the TGI in assay [7] and in assay [8] was over 100 µM throughout.
`CCN(CC)CC1CCCCN1CC(=O)N1c2ccccc2C(=O)Nc2cccnc21` (stereo unspecified): the TGI was over 100 µM in [1]; over 100 µM in assay [2]; 55.5 µM in assay [3]; 67.5 µM in assay [4]; over 100 µM in [5]; over 100 µM in [6]. In addition, the TGI in assay [7] is 75.2 µM; in assay [8] it was over 100 µM.
As for `CCN1C(=O)c2cc(OC)c(OC)cc2C(=O)C12OC(=O)c1cc3c(cc12)OCO3` (stereo unspecified), the TGI in [1] is over 100 µM; in assay [2] it was over 100 µM; in assay [3], over 100 µM; in assay [4], over 100 µM; in assay [5], 72.9 µM; in assay [6], over 100 µM. In addition, the TGI in assay [7] and in assay [8] was over 100 µM throughout.
As for `O=C1CCCN1C(=O)CS(=O)(=O)c1ccccc1`, the TGI in assay [1], in [2], in assay [3], in assay [4], in [5] and in [6] was over 100 µM throughout. In addition, the TGI in [7] and in assay [8] was over 100 µM each time.
For `COC1=CC(=O)C2=C(C1=O)[C@H]1CC[C@]3(C)[C@@H](O)CC[C@H]3[C@@H]1CC2`, the TGI worked out at 57.4 µM in assay [1]; 37.5 µM in [2]; 20.8 µM in assay [3]; 84 µM in [4]; 46.5 µM in assay [5]; 31 µM in assay [6]. The TGI in assay [7] came to 30 µM; in assay [8] it was 31.2 µM.
